Measured values: patent publication US9615576B2, “Pesticidal compositions and processes related thereto” (Dow AgroSciences LLC, priority 2011, dated 2017)

Legend:
[1] = tested on: Beet Armyworm (BAW) (Spodoptera exigua); assay: Bioassays on Beet Armyworm (BAW), 128-well diet tray assay; format: in vivo; conditions: 168 h, 50 μg/cm^2 test compound on artificial diet, second instar larvae, 25° C., five to seven days, average of eight wells, read-out: BAW Rating (% mortality)
Summary of the method: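 Second-instar larvae (1–5 per well) on artificial diet surface-treated with 50 μg/cm^2 compound applied in 90:10 acetone-water and dried; eight wells per compound. Held 5–7 days at 25° C., 14:10 light-dark. Percent mortality scored per well and averaged over eight wells.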

[2] = tested on: Corn Earworm (CEW) (Helicoverpa zea); assay: Bioassays on Corn Earworm (CEW), 128-well diet tray assay; format: in vivo; conditions: 168 h, 50 μg/cm^2 test compound on artificial diet, second instar larvae, 25° C., five to seven days, average of eight wells, read-out: CEW Rating (% mortality)
Summary of the method: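 Second-instar larvae (one to five per well) placed on artificial diet treated with 50 μg/cm^2 compound in 90:10 acetone-water, dried; eight wells per compound. Held at 25° C, 14:10 light-dark, five to seven days; percent mortality averaged over wells.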

Compound | mortality at 50 µg/cm2 [1] [%] | mortality at 50 µg/cm2 [2] [%]
CC(=O)NCc1ccc(/C=C/C(c2cc(Cl)cc(Cl)c2)C(F)(F)F)cc1 (centres unmarked) [CC1, (E)-N-(4-(3-(3,5-dichlorophenyl)-4,4,4-trifluorobut-1-enyl)benzyl)acetamide] | 0 | 0
Cc1cc(/C=C/C(c2cc(Cl)cc(Cl)c2)C(F)(F)F)ccc1C(=O)NCC(=O)N(C)CC(F)(F)F (centres unmarked) [AC51] | 50 to 100 | 50 to 100
Cc1cc(/C=C/C(c2cc(Cl)cc(Cl)c2)C(F)(F)F)ccc1C(=O)NC(C)(C)c1ccccn1 (centres unmarked) [AC16] | 50 to 100 | 50 to 100
N#Cc1cc(/C=C/C(c2cc(Cl)c(Cl)c(Cl)c2)C(F)(F)F)ccc1-n1cnc(N)n1 (centres unmarked) [DC41, (E)-2-(3-amino-1H-1,2,4-triazol-1-yl)-5-(4,4,4-trifluoro-3-(3,4,5-trichlorophenyl)but-1-en-1-yl)benzonitrile] | 50 to 100 | 50 to 100
O=C(c1ccc(/C=C/C(c2cc(Cl)cc(Cl)c2)C(F)(F)F)cc1)N1CCOCC1 (centres unmarked) [AC5] | 0 | 0
FC(F)(F)c1cc(C(/C=C/c2ccc(-n3cncn3)cc2)C(F)(F)F)cc(C(F)(F)F)c1 (centres unmarked) [DC16] | 50 to 100 | 50 to 100
Cc1cc(C)cc(C(/C=C/c2ccc(-n3cncn3)cc2)C(F)(F)F)c1 (centres unmarked) [DC11] | 50 to 100 | 0
Cc1cc(/C=C/C(c2cc(Cl)cc(Cl)c2)C(F)(F)F)ccc1C(=O)NCc1ccccc1 (centres unmarked) [AC11] | 50 to 100 | 50 to 100
O=[N+]([O-])c1cc(/C=C/C(c2cc(Cl)cc(Cl)c2)C(F)(F)F)ccc1-n1cncn1 (centres unmarked) [DC54] | 0 | 0
Cc1cc(/C=C/C(c2cc(Cl)cc(Cl)c2)C(F)(F)F)ccc1C(=O)NCC(F)(F)F (centres unmarked) [AC6, (E)-4-(3-(3,5-dichlorophenyl)-4,4,4-trifluorobut-1-enyl)-2-methyl-N-(2,2,2-trifluoroethyl)benzamide] | 0 | 50 to 100
COc1ccc(C(/C=C/c2ccc(-n3cncn3)cc2)C(F)(F)F)cc1 (centres unmarked) [DC6] | 0 | 0
Fc1cccc(C(/C=C/c2ccc(-n3cncn3)cc2)C(F)(F)F)c1 (centres unmarked) [DC9] | 0 | 0
O=C(CC(F)(F)F)NCc1ccc(/C=C/C(c2ccc(Cl)c(Cl)c2)C(F)(F)F)cc1Cl (centres unmarked) [CC18] | 50 to 100 | 50 to 100
FC(F)(F)C(/C=C/c1ccc(-n2cncn2)cc1)c1cccc(Cl)c1 (centres unmarked) [DC2] | 0 | 0
O=C(NCc1ccc(Cl)nc1)c1ccc(/C=C/C(c2cc(Cl)cc(Cl)c2)C(F)(F)F)cc1Br (centres unmarked) [AC46] | 50 to 100 | 50 to 100
O=C(NC1CCc2cc(/C=C/C(c3cc(Cl)c(Cl)c(Cl)c3)C(F)(F)F)ccc21)C1CC1 (centres unmarked) [BC6] | 50 to 100 | 50 to 100
O=C(CNC(=O)c1ccc(/C=C/C(c2cc(Cl)c(Cl)c(Cl)c2)C(F)(F)F)cc1Br)NCC(F)(F)F (centres unmarked) [AC66] | 50 to 100 | 50 to 100
FC(F)(F)C(/C=C/c1ccc(-n2cncn2)c(Cl)c1)c1cc(Cl)c(Cl)c(Cl)c1 (centres unmarked) [DC49] | 50 to 100 | 50 to 100
Fc1c(Cl)cc(C(/C=C/c2ccc3c(c2)CCC3NCCC(F)(F)F)C(F)(F)F)cc1Cl (centres unmarked) [BC10, (E)-5-(3-(3,5-dichloro-4-fluorophenyl)-4,4,4-trifluorobut-1-en-1-yl)-N-(3,3,3-trifluoropropyl)-2,3-dihydro-1H-inden-1-amine] | 50 to 100 | 50 to 100
Cc1cc(/C=C/C(c2cc(Cl)cc(Cl)c2)C(F)(F)F)ccc1C(=O)NCc1ccc(Cl)nc1 (centres unmarked) [AC7] | 50 to 100 | 50 to 100
Cc1cc(/C=C/C(c2cc(Cl)c(Cl)c(Cl)c2)C(F)(F)F)ccc1C(=O)NCc1cnc(Cl)s1 (centres unmarked) [AC26] | 50 to 100 | 50 to 100
O=C(NCCc1ccc(Cl)nc1)c1ccc(/C=C/C(c2cc(Cl)c(Cl)c(Cl)c2)C(F)(F)F)cc1Br (centres unmarked) [AC113] | 0 to 50 | 50 to 100
N#Cc1cc(/C=C/C(c2ccc(Cl)c(Cl)c2)C(F)(F)F)ccc1-n1cncn1 (centres unmarked) [DC28] | 50 to 100 | 50 to 100
Cc1cc(/C=C/C(c2cc(Cl)cc(Cl)c2)C(F)(F)F)ccc1C(=O)NCC(=O)NNC(=O)C1CC1 (centres unmarked) [AC47] | 0 | 0
Cc1cc(/C=C/C(c2cc(Cl)cc(Cl)c2)C(F)(F)F)ccc1C(=O)N[C@H]1C[S@@+]([O-])C1 (some centres unmarked) [AC82] | 50 to 100 | 50 to 100

Compound | mortality at 50 µg/cm2 [1] [%] | mortality at 50 µg/cm2 [2] [%]
Cc1cc(/C=C/C(c2cc(Cl)cc(Cl)c2)C(F)(F)F)ccc1C(=O)NCC(=O)NC1CSC1 (centres unmarked) [AC41] | 50 to 100 | 0
O=C(Cc1ccc(Cl)nc1)NC1CCc2cc(/C=C/C(c3cc(Cl)c(F)c(Cl)c3)C(F)(F)F)ccc21 (centres unmarked) [BC9] | 50 to 100 | 50 to 100
CNC(=O)c1ccc(/C=C/C(c2cc(Cl)cc(Cl)c2)C(F)(F)F)cc1 (centres unmarked) [AC1] | 0 | 0
CCNC(=S)NCc1ccc(/C=C/C(c2cc(Cl)c(Cl)c(Cl)c2)C(F)(F)F)cc1Cl (centres unmarked) [CC37, (E)-1-(2-chloro-4-(4,4,4-trifluoro-3-(3,4,5-trichlorophenyl)but-1-en-1-yl)benzyl)-3-ethylthiourea] | 50 to 100 | 50 to 100
FC(F)(F)CNC(=S)CNC(=S)c1ccc(/C=C/C(c2cc(Cl)c(Cl)c(Cl)c2)C(F)(F)F)cc1Br (centres unmarked) [AC90, (E)-2-bromo-N-(2-thioxo-2-((2,2,2-trifluoroethyl)amino)ethyl)-4-(4,4,4-trifluoro-3-(3,4,5-trichlorophenyl)but-1-en-1-yl)benzothioamide] | 50 to 100 | 50 to 100
O=C(CC(F)(F)F)NCc1ccc(/C=C/C(c2cc(Cl)c(Cl)c(Cl)c2)C(F)(F)F)cc1Br (centres unmarked) [CC25] | 50 to 100 | 50 to 100
CNC(=S)NC1CCc2cc(/C=C/C(c3cc(Cl)c(Cl)c(Cl)c3)C(F)(F)F)ccc21 (centres unmarked) [BC1, (E)-1-methyl-3-(5-(4,4,4-trifluoro-3-(3,4,5-trichlorophenyl)-but-1-enyl)-2,3-dihydro-1H-inden-1-yl)thiourea] | 50 to 100 | 50 to 100
Cc1cc(/C=C/C(c2cc(Cl)cc(Cl)c2)C(F)(F)F)ccc1C(=O)NCc1ccc(Cl)cc1 (centres unmarked) [AC48] | 50 to 100 | 50 to 100
Cc1cc(/C=C/C(c2cc(Cl)c(Cl)c(Cl)c2)C(F)(F)F)ccc1-n1cncn1 (centres unmarked) [DC63] | 50 to 100 | 50 to 100
O=C(NC1CS(=O)(=O)C1)c1ccc(/C=C/C(c2cc(Cl)c(Cl)c(Cl)c2)C(F)(F)F)cc1Br (centres unmarked) [AC33] | 50 to 100 | 50 to 100
Cc1cc(/C=C/C(c2cc(Cl)cc(Cl)c2)C(F)(F)F)ccc1C(=O)Nc1ccc(Cl)nc1 (centres unmarked) [AC59] | 50 to 100 | 50 to 100
O=C(NC1CCN(CC(F)(F)F)CC1)c1ccc(/C=C/C(c2cc(Cl)c(Cl)c(Cl)c2)C(F)(F)F)cc1Br (centres unmarked) [AC105, (E)-2-bromo-4-(4,4,4-trifluoro-3-(3,4,5-trichlorophenyl)but-1-en-1-yl)-N-(1-(2,2,2-trifluoroethyl)piperidin-4-yl)benzamide] | 50 to 100 | 50 to 100
O=C(NCC(=S)NCC(F)(F)F)c1ccc(/C=C/C(c2cc(Cl)c(Cl)c(Cl)c2)C(F)(F)F)cc1Br (centres unmarked) [AC92, (E)-2-bromo-N-(2-thioxo-2-((2,2,2-trifluoroethyl)amino)ethyl)-4-(4,4,4-trifluoro-3-(3,4,5-trichlorophenyl)but-1-en-1-yl)benzamide] | 50 to 100 | 50 to 100
Cc1cc(/C=C\C(c2cc(Cl)cc(Cl)c2)C(F)(F)F)ccc1C(=O)NCc1ccc(Cl)nc1 (centres unmarked) [AC94] | 0 | 0 to 50
Cc1cc(/C=C/C(c2cc(Cl)c(F)c(Cl)c2)C(F)(F)F)ccc1C(=O)NCc1ccc(Cl)cn1 (centres unmarked) [AC53] | 50 to 100 | 50 to 100
FC(F)(F)C(/C=C/c1ccc(-n2cncn2)cc1)c1cc(Cl)ccc1Cl (centres unmarked) [DC15] | 0 | 0
COc1c(Cl)cc(C(/C=C/c2ccc(-n3cncn3)c(C#N)c2)C(F)(F)F)cc1Cl (centres unmarked) [DC34] | 50 to 100 | 50 to 100
O=C(NCc1ccc(/C=C/C(c2cc(Cl)cc(Cl)c2)C(F)(F)F)cc1Cl)C1CC1 (centres unmarked) [CC8] | 50 to 100 | 50 to 100
Cc1cc(/C=C/C(c2cc(Cl)c(Cl)c(Cl)c2)C(F)(F)F)ccc1C(=O)NC1CSC1 (centres unmarked) [AC23] | 50 to 100 | 50 to 100
COc1cc(/C=C/C(c2cc(Cl)c(F)c(Cl)c2)C(F)(F)F)ccc1C(=O)NC1CSC1 (centres unmarked) [AC71] | 50 to 100 | 50 to 100
Cc1ncn(-c2ccc(/C=C/C(c3cc(Cl)cc(Cl)c3)C(F)(F)F)cc2)n1 (centres unmarked) [DC21] | 0 | 0
Cc1cc(/C=C/C(c2cc(Cl)cc(Cl)c2)C(F)(F)F)ccc1C(=O)NC1CS(=O)(=O)C1 (centres unmarked) [AC13] | 50 to 100 | 50 to 100
N#CCN1CCC(NC(=O)c2ccc(/C=C/C(c3cc(Cl)c(Cl)c(Cl)c3)C(F)(F)F)cc2Br)CC1 (centres unmarked) [AC107] | 0 to 50 | 50 to 100
CSc1ncnn1-c1ccc(/C=C/C(c2cc(Cl)cc(Cl)c2)C(F)(F)F)cc1 (centres unmarked) [DC25] | 0 | 0
